Test results as given in patent publication US10342480B2, “Magnetoencephalography biomarkers of GABA-B agonist drug activity in autism spectrum disorders” (THE CHILDREN'S HOSPITAL OF PHILADELPHIA, priority 2013, dated 2019).

What was measured:
[1] = test system: auditory brain activity (M100 latency, gamma-band ITC, steady state gamma) in autism; test: Magnetoencephalography (MEG) of auditory responses at baseline and 12 weeks after treatment, single subject from clinical trial; assay type: in vivo, human
Description: FIG. 5 provides graphs of M100 latency in autism in response to STX209, showing baseline and post-treatment.
To measure M100 STG latency, a 1 Hz (6 dB/octave, forward) to 40 Hz (48 dB/octave, zero-phase) bandpass filter was applied and left and right M100 STG peak latency (measured in nano-Ampere-meters, nAm) was calculated from the largest point in the M100 scoring window (90 to 190 ms) using in-house MatLab software.
The calculation of single-trial phase and magnitude for the left and right STG sources used a modification of procedures (Hoechstetter et al. (2004) Brain Topogr, 16:233-8.) where in each participant the derived source model was applied to the raw unfiltered data. Transformation from the time domain to the time-frequency domain used complex demodulation procedures (Papp et al. (1977) Biomed Sci Instrum, 13:135-45) implemented in BESA 5.2, using frequencies between 4 and 80 Hz, in steps of 2 Hz.1 Continuous data were analyzed relative to the tone onset every 25 ms, utilizing +/−39.4 ms and +/−2.83 Hz (full width at half maximum parameters) of contiguous data at each 25 ms step. Time-frequency measures were computed from −400 to 400 ms relative to stimulus onset. For evoked activity, background activity at each frequency (average power −400 to −100 ms) was calculated and subtracted as a function of frequency. In addition to evoked activity, for each time-frequency bin, a measure of phase-locking referred to as inter-trial coherence was computed as
[formula] where the sum is over all N trials, and Ø (k) is the phase of the signal in the k^th trial. Inter-trial coherence (ITC) is a normalized measure with ITC=1 reflecting no phase variability and ITC=0 reflecting maximal phase variability across trials (Lachaux et al. (1999) Hum. Brain Mapp, 8:194-208). Group Comparisons
A single subject from a recent phase/T clinical trial of STX209 (arbaclofen), a […] agonist, underwent MEG at baseline and at 12 weeks after treatment. […] Indeed, a reduction in 100 ms latency for 4 stimuli in both hemispheres was observed.

baseline gamma power = conditions: NMDAR antagonists; in vivo LFP and EEG recordings in awake rodents; cited from earlier work

| SMILES | auditory M100 latency ([1]; MEG at baseline vs 12 weeks after treatment, 4 stimuli, both hemispheres, FIG. 5) | gamma-band inter-trial coherence (ITC) ([1]; MEG at baseline vs 12 weeks after treatment, both hemispheres, FIG. 6) | steady state gamma power ([1]; baseline vs post-treatment, elicited by AM tone, driven at 40 Hz, FIG. 7) | baseline gamma power (baseline gamma power) |
| --- | --- | --- | --- | --- |
| NC[C@H](CC(=O)O)c1ccc(Cl)cc1 [STX209, arbaclofen] | shortened post-treatment | gamma band ITC was restored after treatment | boosted post-treatment |  |
| c1ccc(C2(N3CCCCC3)CCCCC2)cc1 [PCP] |  |  |  | dose-dependent increase in baseline gamma power |
| CNC1(c2ccccc2Cl)CCCCC1=O (stereo not drawn) [ketamine] |  |  |  | dose-dependent increase in baseline gamma power |
| C[C@]12N[C@H](Cc3ccccc31)c1ccccc12 [MK-801] |  |  |  | dose-dependent increase in baseline gamma power |
